This note sets out measurements from article PMC5723097, “Molecular and functional characterization of ferredoxin NADP(H) oxidoreductase from Gracilaria chilensis and its complex with ferredoxin” (Biological Research, 2017).

The assay concerns T1, FNR^PBS (ferredoxin NADP(H) oxidoreductase).
T1 construct: gene petH; native enzyme in phycobilisome-enriched fraction; N-terminal peptides MAAVDKKK (1-8), VPINIFRPK (9-17); not recombinant
As to the kind of experiment: diaphorase assay, NADPH oxidation at […] nm, Michaelis-Menten fit. In kind it is biochemical, Gracilaria chilensis. The following applies: 0.15 mM DCPIP as acceptor, 50 mM Tris-HCl pH 8, 1 mM Na2EDTA; phycobilisome-enriched fraction, high salt.

As a reminder, the Km is the substrate concentration at which the rate is half of its maximum. For the compound `NC(=O)C1=CN([C@@H]2O[C@H](COP(=O)(O)OP(=O)(O)OC[C@H]3O[C@@H](n4cnc5c(N)ncnc54)[C@H](OP(=O)(O)O)[C@@H]3O)[C@@H](O)[C@H]2O)C=CC1` [NADPH], the Km was determined as 12.5 ± 1.8 µM.
